# Assay: Inhibition of dynamin 1-mediated endocytosis internalization of Tf-A594 in human U2OS cells pretreated for 30 mins
row,SMILES,IC50 [µM]
1,CCCCCCCCNC(=O)/C(C#N)=C/c1cn(CCCN(C)C)c2ccccc12 [2-Cyano-N-octyl-3-(1-(3-dimethylaminopropyl)-1H-indol-3-yl)-acrylamide],5
2,CCCCCCNC(=O)/C(C#N)=C/c1c(C)n(CCCN(C)C)c2ccccc12 [2-Cyano-N-hexyl-3-[1-(3-dimethylaminopropyl)-2-methyl-1Hindol-3-yl]-acrylamide],14.3

# The next lines start with the values.
row,IC50 [µM],SMILES
1,13.2,CCCCCCCCNC(=O)/C(C#N)=C/c1c(C)n(CCN(C)C)c2ccccc12 [2-Cyano-N-octyl-3-[1-(2-dimethylaminoethyl)-2-methyl-1Hindol-3-yl]-acyrlamide]
2,10.8,CCCCCCCCNC(=O)/C(C#N)=C/c1c(C)n(CCCN(C)C)c2ccccc12 [2-Cyano-N-octyl-3-[1-(3-dimethylaminopropyl)-2-methyl-1Hindol-3-yl]-acrylamide]
3,58.2,CCCCCCCCCCNC(=O)/C(C#N)=C/c1c(C)n(CCN(C)C)c2ccccc12 [2-Cyano-N-decyl-3-[1-(2-dimethylaminoethyl)-2-methyl-1Hindol-3-yl]-acrylamide]

# Reference: BindingDB's records for doi:10.1021/jm900036m (The University of Newcastle, 2009)
